Measured values published in patent US20070074295A1 (priority 2000, published 2007).

Tests used:
[1] = tested on: UNC5H1 (a netrin receptor); experiment: Rat Atlas Array, prefrontal cortex, chronic PCP model; format: in vivo
Description: (§5) Rats were injected with PCP (2.58 mg/kg) or vehicle i.p. for 5 days according to the YRING PCP model. […] On the same day, the rats began a course of i.p. injections every 2.5 days with either PCP (2.58 mg/kg) or vehicle.
(§6) 21 days after minipump implantation, animals were killed by cervical dislocation and the prefrontal cortex dissected and stored at −70° C. RNA was then prepared according to the protocol below and the corresponding cDNA synthesis and hybridisation procedure were conducted using the rat Atlas Array kit according to the manufacturer's instructions (Clontech).
(§7) Results are expressed as mean relative optical densities ±SEM. Statistical significance was defined as P<0.05. N=¾ per group.
(§8) Frozen tissue already resides in the ribolyser tubes from the dissection procedure • 1) Add 1.1 ml Qiagen lysis buffer (containing β-mercaptoethanol, final volume =3%). • 2) Perform 3×20 sec homogenisations at 6.5 g in a ribolyser. • 3) Spin 3 min in microfuge. • 4) Decant to fresh tube and re-spin 3 min. • 5) Decide at this stage if you want to dilute supernatant with more lysis buffer. • 6) Add equal volume of phenol/CHCl3 pH4.7, vortex 30 sec and leave on ice for 10 min. • 7) Re-vortex and spin 4° C. 5-10 min at 1500 g. • 8) Decant supernatant and add 100 μl H2O. Add an equal volume of phenol/CHCl3 pH4.7, vortex, spin 5-10 min at 1500 g. • 9) Decant supernatant and add 100 μl H2O. […]

[2] = tested on: CIRL3 variant AA mRNA; experiment: Semi-quantitative RT-PCR, prefrontal cortex, chronic PCP and antipsychotic treatment; format: in vivo, rat; conditions: chronic PCP treatment
Description: FIG. 16 illustrates the level of CIRL3 variant AA mRNA present in the prefrontal cortex of rat brain following chronic PCP and antipsychotic treatment (n=12 for all groups apart from veh-veh where n=11) […] and […] (SEQ ID NOS: 29-30) were the primer sequences used to amplify this product.
(§1) RT-PCR for specific isoforms of CIRL was then conducted in the prefrontal cortex.
(§2) 1 ml of lysis buffer (Qiagen), including 1% β-mercaptoethanol, was added to approximately 50-100 mg of brain tissue. Tissue samples were homogenised using a ribolyser (Hybaid) with 3 bursts at 6.5 g lasting 20 seconds each. Samples were then spun at room temperature in a microfuge for 3 minutes. The supernatant was removed and re-spun for a further 3 minutes. The supernatant was decanted to a fresh tube to which an equal volume of 70% ethanol was added. The remaining RNA isolation procedure was carried out according to the manufacturer's protocol (Qiagen).
(§3) Synthesis of cDNA was carried out according to manufacturers protocols (Life Technologies). Briefly 3-5μg of total RNA was reverse transcribed using oligo dT priming. After cDNA synthesis, samples were aliquoted and stored at −70° C. […]
(§4) Alterations in expression levels were determined by semi-quantitative PCR. […] Samples were removed over 4 consecutive cycles, however, the first cycle to be removed sometimes varied depending on when logarithmic amplification was detected. […]

[3] = tested on: TNFα mRNA; experiment: RT-PCR for TNFα mRNA in rat prefrontal cortex; format: in vivo; conditions: acute PCP, single i.p. injection 2 mg/kg, 2 hrs and 24 hrs
Description: Four groups of rats were treated with (a) chronic PCP, (b) chronic vehicle (control), (c) chronic PCP plus chronic clozapine (as above) or (d) chronic PCP plus chronic haloperidol (as above). The tissue was processed for RNA extraction and RT-PCP as described above, using primers specific for TNFα mRNA.

[4] = tested on: Synapsins 1A&1B; experiment: Rat Atlas Array, prefrontal cortex, chronic PCP model; format: in vivo
Description: as §5, §6, §7, §8

[5] = tested on: rats; experiment: Effect of haloperidol and clozapine on PCP induced hypofunction: LCGU; format: in vivo, rat; conditions: i.p. PCP 2.58 mgkg^−1; minipump vehicle, clozapine 20 or haloperidol 1 mgkg^−1/day; day 29
Excerpt: The effect of antipsychotics on the positive symptoms is less well studied regarding imaging studies.

[6] = tested on: parvalbumin mRNA; experiment: Parvalbumin mRNA in situ hybridisation in chronic PCP model; format: in vivo, rat; conditions: chronic PCP treatment, alone or with clozapine or haloperidol
Description: In order to validate further this chronic PCP model the effect of this treatment paradigm on parvalbumin mRNA expression was investigated.
In situ hybridisation: a 45mer oligonucleotide probe was designed against bases 223-267 of the rat parvalbumin gene (GenBank accession number A819345). In situ hybridisation was carried out according to the method of Wisden and Morris (1994).

[7] = tested on: 5-HT2A receptors; experiment: 5-HT2A receptor binding (3H-ketanserin autoradiography) in prefrontal cortex after chronic PCP; format: in vivo, rat; conditions: chronic PCP treatment
Excerpt: In order to further validate this chronic PCP model, the effects of this treatment paradigm on 5-HT2A receptors within the prefrontal cortex was investigated. Chronic PCP treatment produced a significant decrease in 5-HT2A receptors in layer II & III (controls 158±6, PCP 139±4 fmolmg^−1) and layers V & VI (controls 82±4, PCP 69±3 fmolmg^−1). This is entirely consistent with post mortem studies of 5-HT2A receptor binding from schizophrenic patents (Laurelle, M. et al).
5-HT2A receptor binding: Sections from the level of the prefrontal cortex were preincubated for two consecutive washes at room temperature in 50mM Tris HCl buffer pH 7.4 to remove endogenous ligand. Total binding was defined using 0.71 nM (Wolkin, A. et al) ^3H-ketanserin in the presence of 1μM prazozin and 1μM tetrabenazine (to block non 5-HT2A binding). Non-specific binding was defined using 50nM spiperone. Sections were incubated with the appropriate ligand solution for 1 hour at room temperature then washed twice for 10 minutes in ice cold buffer before being rinsed in ice cold water and rapidly air dried. The sections were then exposed to film (Biomax MR, Kodak) with previously calibrated (Wolkin, A. et al) ^3H-standards.
Autoradiograms were analysed using MCID densitometry system. Results were statistically analysed using a one-way ANOVA followed by a student Newman-Keuls post hoc test.

[8] = tested on: CIRL1 mRNA; experiment: Semi-quantitative RT-PCR, prefrontal cortex, chronic PCP and antipsychotic treatment; format: in vivo, rat; conditions: chronic PCP treatment
Description: FIG. 14 illustrates the level of CIRL1 mRNA present in the prefrontal cortex of rat brain following chronic PCP and antipsychotic treatment (n=12 for all groups apart from veh-veh where n=11). […] and […] (SEQ ID NOS: 25-26) were the primer sequences used to amplify this product.
as §1, §2, §3, §4

c1ccc(C2(N3CCCCC3)CCCCC2)cc1 [PCP, phencyclidine]
UNC5H1 expression (Atlas Array) [1]: 3936 ± 472 relative optical densities | expression of CIRL3 (AA) (RT-PCR) [2]: reduced | levels of TNFα in rat prefrontal cortex [3]: reduced | Synapsins 1A&1B expression (Atlas Array) [4]: 23020 ± 1412 relative optical densities | LCGU, Au layer I [5]: 138 ± 3 μmol/100 g/min | LCGU, Au layers II, III&IV [5]: 174 ± 4 μmol/100 g/min | LCGU, Au layers V & VI [5]: 120 ± 2 μmol/100 g/min | LCGU, AuD layer I [5]: 126 ± 5 μmol/100 g/min | LCGU, AuD layers II, III&IV [5]: 141 ± 6 μmol/100 g/min | LCGU, AuD layers V & VI [5]: 105 ± 2 μmol/100 g/min | LCGU, CA1 molecular layer [5]: 93 ± 2 μmol/100 g/min | LCGU, CA1 pyramidal cell layer [5]: 63 ± 2 μmol/100 g/min | LCGU, CA1 stratum oriens [5]: 59 ± 2 μmol/100 g/min | LCGU, CA1 stratum radiatum [5]: 67 ± 2 μmol/100 g/min | LCGU, CA3 molecular layer [5]: 90 ± 2 μmol/100 g/min | LCGU, CA3 pyramidal cell layer [5]: 69 ± 2 μmol/100 g/min | LCGU, CA3 stratum oriens [5]: 60 ± 3 μmol/100 g/min | LCGU, CA3 stratum radiatum [5]: 70 ± 3 μmol/100 g/min | LCGU, DLL [5]: 89 ± 4 μmol/100 g/min | LCGU, MD [5]: 133 ± 6 μmol/100 g/min | LCGU, PrL layer I [5]: 109 ± 4 μmol/100 g/min | LCGU, PrL layers II & III [5]: 127 ± 5 μmol/100 g/min | LCGU, PrL layers V & VI [5]: 97 ± 3 μmol/100 g/min | LCGU, Rt [5]: 79 ± 2 μmol/100 g/min | LCGU, VLL [5]: 98 ± 6 μmol/100 g/min | LCGU, cochlear nucleus [5]: 92 ± 4 μmol/100 g/min | LCGU, mO layer I [5]: 104 ± 5 μmol/100 g/min | LCGU, mO layers II & III [5]: 121 ± 6 μmol/100 g/min | LCGU, mO layers V & VI [5]: 113 ± 6 μmol/100 g/min | parvalbumin mRNA, prelimbic region of the prefrontal cortex [6]: 0.0536±0.0023 relative optical density (ROD) | parvalbumin mRNA, ventral reticular nucleus of the thalamus [6]: 0.5032±0.0194 ROD | 5-HT2A receptors, prefrontal cortex layer II & III [7]: 139±4 fmolmg^−1 | 5-HT2A receptors, prefrontal cortex layers V & VI [7]: 69±3 fmolmg^−1 | expression of CIRL1 (RT-PCR) [8]: reduced
